According to patent US7285395B2, “Stearoyl-CoA desaturase 4 gene” (Wisconsin Alumni Research Foundation, priority 2004, dated 2007):

Assays:
Type in all cases: in vivo, mouse
Settings in all cases: heart, 129SV mice, chow diet containing 0.025% T0901317 fed for 2 days
[1] = tested on: mSCD1; assay: quantitative RT-PCR of mSCD1 mRNA in hearts of mice fed test diets
Procedure: (§1) The mice were fed the following diets. A, a high carbohydrate fat-free diet (CHO-FF). B, high carbohydrate fat-free diet supplemented with fish oil (CHO-FO) that was fed for 4 days. C, chow diet supplemented with the LXRα agonist T0901317 (LXR) and fed for 2 days. Total RNA from hearts of mice from each group (n=4) was subjected to quantitative RT-PCR using specific primers as described in the example below. The fold change was calculated after correction for the levels of cyclophilin used as a standard. Each value represents the mean±S.E. (n=4). *, p<0.01; **, p<0.001 versus wild type (Student's t test).
(§2) Animals and Diets—Male C57BL6J and ob/ob mice were obtained from the Jackson Laboratory (Bar Harbor, Me.). 129S6/SvEv mice were purchased from Taconic (Germantown, N.Y.). […]
(§3) Cloning and Expression of the Mouse SCD4 cDNA—A BLAST search of the mouse genomic data base identified a gene with exon sequences highly homologous to the amino acid sequence of mouse SCD1, 2, and 3 (GenBank™ accession numbers AH—002082, M26270, and AF272037, respectively). Using the genomic sequence, a candidate open reading frame of the putative SCD4 was cloned by synthesizing a forward and a reverse primer. […]

[2] = tested on: mSCD2; assay: quantitative RT-PCR of mSCD2 mRNA in hearts of mice fed test diets
Procedure: as §1, §2, §3

[3] = tested on: mSCD4; assay: quantitative RT-PCR of mSCD4 mRNA in hearts of mice fed test diets
Procedure: as §1, §2, §3

## O=S(=O)(c1ccccc1)N(CC(F)(F)F)c1ccc(C(O)(C(F)(F)F)C(F)(F)F)cc1 [T0901317]
[1]
  induction of mouse SCD1 mRNA: 18 fold
[2]
  induction of mouse SCD2 mRNA: 12 fold
[3]
  induction of mouse SCD4 mRNA: 60 fold
